Results published in patent US20210238201A1, “ANTIMICROBIAL COMPOUNDS AND COMPOSITIONS” (AGROFRESH INC., priority 2020, published 2021).
Values after ≈ are worked out from the molar mass of the structure shown.

Assays:
[1] = test system: Botrytis cinerea (ATCC #204446); test: in vitro inhibition assay for volatile antimicrobial compounds (headspace, PDA agar); format: cell-based; conditions: for MIC / EC50: Botrytis cinerea, ATCC204446, 72 h; for EC50: growth relative to control
Protocol: (§1) 12-well (6.5 ml volume per well) microtiter plates are used for the in vitro inhibition assay for volatile antimicrobial compounds. A 3-ml volume of full-strength Potato Dextrose Agar (PDA) is added to each well. After cooling, 1 μL of 1×10^5 spores per ml Botrytis cinerea (ATCC #204446) spore suspension is spot pipetted to the agar in the center of the well. Whatman #1 filter disks (1.5 cm; Cat. No. 1001-0155) are placed on the underside of a polyethylene PCR plate sealing film. For determination of the minimum inhibitory concentration (MIC), test compounds are diluted in acetone, in duplicate, and 50 μli of the compound solution is added to disks at concentrations that can vary from 0.001 mg/l to 1142.9 mg/l. The acetone is permitted to evaporate for 5 minutes. The headspace around the Botrytis cinerea inoculum is then sealed inside the well by the film with the adhering disk containing the antimicrobial, anti-decay, anti-spoilage, or pathogen control agent. Plates are inverted to prevent any possibility of the chemical from flaking from the disk and falling onto the inoculated agar.

Penicillium expansum = test: as above; format: cell-based; conditions: volatile headspace exposure
Protocol: [The procedure below names another organism; the source lists this organism under the same test.] as §1

[2] = test system: Botrytis cinerea (ATCC #204446); test: Grape in vivo analysis, volatile bioassay on inoculated green table grape; parameters: species or system Botrytis cinerea on green table grape; conditions: for antimicrobial activity against Botrytis cinerea in grape in vivo analysis: stem wound inoculated, 3 days treatment at 21° C. plus 3 days evaluation; for phytotoxicity in grape in vivo analysis: symptoms of phytotoxicity evaluated daily
Protocol: In order to assess the in vivo activity of volatile antimicrobial compounds, a volatile bioassay is developed using green table grape. Fruit are removed from the rachis, and 16 to 20 fruit are placed inside a 1 dry pint clamshell (Produce Packaging; Product #03231004KZ) with the stem wound facing upwards. The grapes are inoculated by pipetting 20 μL of 1×10^6 spore per ml Botrytis cinerea (ATCC #204446) into the stem wound. The clamshell is placed inside a 2.55 L plastic container (Snapware; Model #1098421). A Whatman #1 filter paper (4.25 cm; Cat. No. 1001-042) is placed on a watchglass, which is then placed on top of the closed clamshell lid. For determination of the MIC, test compounds are diluted in acetone, and 400 μl of the solution is added to disks, in duplicate, in a dose dependent manner (for example 0.4 to 50 mg/liter). The acetone is permitted to evaporate for 5 minutes. The plastic containers are then closed and placed for 3 days at 21° C. Clamshells are then removed from the treatment plastic container and placed into separate larger secondary containers for a further 3 days of evaluation at 21° C. During these 3 days, fruit are evaluated daily for incidence and severity of disease and symptoms of phytotoxicity.

[3] = test system: Botrytis cinerea (ATCC #204446); test: Strawberry in vivo analysis, volatile bioassay on wound-inoculated strawberry; parameters: species or system Botrytis cinerea on strawberry; conditions: for phytotoxicity in strawberry in vivo analysis: symptoms of phytotoxicity evaluated daily; for antimicrobial activity against Botrytis cinerea in strawberry in vivo analysis: wound-inoculated, 3 days treatment at 21° C. plus 3 days evaluation
Protocol: In order to assess the in vivo activity of volatile antimicrobial compounds, a volatile bioassay is developed using strawberry. Fruit (6 to 8) are placed inside a 1 lb clamshell (Packaging Direct Inc.; Product #4341699) with the calyx facing downward. The strawberry fruit are wound-inoculated by pipetting 20 μL of 1×10^6 spore per ml Botrytis cinerea (ATCC #204446) into a wound approximately 5 mm deep and 2.6 mm in width. The clamshell is placed inside a 2.55 L plastic container (Snapware; Model #1098421). A Whatman #1 filter paper (4.25 cm; Cat. No. 1001-042) is placed on a watchglass, which is then placed on top of the closed clamshell lid. For determination of the MIC, test compounds are diluted in acetone, and 400 μl of the solution is added to disks, in duplicate, in a dose dependent manner (for example 0.4 to 50 mg/liter). The acetone is permitted to evaporate for 5 minutes. The plastic containers are then closed and placed for 3 days at 21° C. Clamshells are then removed from the treatment plastic container and placed into separate larger secondary containers for a further 3 days of evaluation at 21° C. During these 3 days, fruit are evaluated daily for incidence and severity of disease and symptoms of phytotoxicity.

[4] = test system: Escherichia coli (ATCC #25922); test: in vitro inhibition assay for volatile antimicrobial compounds against bacteria (LB agar); format: cell-based; conditions: volatile headspace exposure, 2 days at 23° C.
Protocol: 12-well (6.5 ml volume per well) microtiter plates are used for the in vitro inhibition assay for volatile antimicrobial compounds. A 3-ml volume of full-strength L^B Agar is added to each well. After cooling, 15 μL of Escherichia coli (ATCC #25922) adjusted to an optical density of 0.02 to 0.035, and further diluted 1/10 is pipetted to the center of the agar. The plate is tilted to distribute bacteria uniformly. Whatman #1 filter disks (1.5 cm; Cat. No. 1001-0155) are placed on the underside of a polyethylene PCR plate sealing film. […] The acetone is permitted to evaporate for 5 minutes. The headspace around the Escherichia coli inoculum is then sealed inside the well by the film with the adhering disk containing the antimicrobial, anti-decay, anti-spoilage, or pathogen control agent. Plates are inverted, placed over the treated disks and sealed to prevent any of the chemical from flaking from the disk and falling onto the inoculated agar. After 2 days of incubation at 23° C., cultures were evaluated for colony growth relative to control.

Monilinia fructicola = test: in vitro inhibition assay for volatile antimicrobial compounds (headspace, PDA agar); format: cell-based; conditions: volatile headspace exposure
Protocol: [The procedure below names another organism; the source lists this organism under the same test.] as §1

Alternaria alternata = test: as above; format: cell-based; conditions: volatile headspace exposure
Protocol: [The procedure below names another organism; the source lists this organism under the same test.] as §1

[5] = volatile headspace exposure, 3 days at 23° C.

| Compound | MIC [1, 5] | EC50 [1, 5] | EC50 (Penicillium expansum) | MIC (Penicillium expansum) | further results |
| --- | --- | --- | --- | --- | --- |
| CC(C)(OB1OCc2ccccc21)C(C)(C)OB1OCc2ccccc21 [Compound 3, 1,1′-((2,3-dimethylbutane-2,3-diyl)bis(oxy))bis(1,3-dihydrobenzo[c][1,2]oxaborole)] | 8.9 µg/mL (≈ 25.4 µM) | 2.1 µg/mL (≈ 6 µM) | 11.1 µg/mL (≈ 31.7 µM) | 71.4 µg/mL (≈ 204 µM) |  |
| c1ccc2c(c1)COB2OCCNCCNCCOB1OCc2ccccc21 [Compound 4, N^1,N^2-bis(2-(benzo[c][1,2]oxaborol-1(3H)-yloxy)ethyl)ethane-1,2-diamine] | 1.1 µg/mL (≈ 2.89 µM) | 0.4 µg/mL (≈ 1.05 µM) | 2 µg/mL (≈ 5.26 µM) | 8.9 µg/mL (≈ 23.4 µM) |  |
| c1ccc2c(c1)COB2NCCNB1OCc2ccccc21 [Compound 5, N^1,N^2-bis(benzo[c][1,2]oxaborol-1(3H)-yl)ethane-1,2-diamine] |  |  | 3.3 µg/mL (≈ 11.3 µM) | 17.9 µg/mL (≈ 61.3 µM) |  |
| c1ccc2c(c1)COB2OB1OCc2ccccc21 [Compound 6, 1,1′-oxybis(1,3-dihydrobenzo[c][1,2]oxaborole)] | 2.2 µg/mL (≈ 8.8 µM) | 0.8 µg/mL (≈ 3.2 µM) | 3.1 µg/mL (≈ 12.4 µM) | 17.9 µg/mL (≈ 71.6 µM) |  |
| Fc1ccc2c(c1)COB2OCCOB1OCc2cc(F)ccc21 [Compound 7, 1,2-bis((5-fluorobenzo[c][1,2]oxaborol-1(3H)-yl)oxy)ethane] | 0.6 µg/mL (≈ 1.82 µM) | 0.2 µg/mL (≈ 0.606 µM) | < 0.6 µg/mL | 8.9 µg/mL (≈ 27 µM) | antimicrobial activity against Botrytis cinerea in grape in vivo analysis [2]: good antimicrobial activity; phytotoxicity in grape in vivo analysis [2]: no phytotoxicity; phytotoxicity in strawberry in vivo analysis [3]: no phytotoxicity; antimicrobial activity against Botrytis cinerea in strawberry in vivo analysis [3]: good antimicrobial activity; antimicrobial activity against Escherichia coli (colony growth relative to control) [4]: good antimicrobial activity; MIC (Monilinia fructicola): 2.2 µg/mL (≈ 6.67 µM); antimicrobial activity against Botrytis cinerea (in words) ([1]; in vitro analysis, b318 says Botrytis cinerea and/or other pathogens): excellent activity; EC50 (Alternaria alternata): 0.3 µg/mL (≈ 0.909 µM); MIC (Alternaria alternata): 2.2 µg/mL (≈ 6.67 µM) |
| CC(C)(COB1OCc2cc(F)ccc21)COB1OCc2cc(F)ccc21 [Compound 8, 1,1′-((2,2-dimethylpropane-1,3-diyl)bis(oxy))bis(5-fluoro-1,3-dihydrobenzo[c][1,2]oxaborole)] | 0.6 µg/mL (≈ 1.61 µM) | 0.3 µg/mL (≈ 0.806 µM) | 0.8 µg/mL (≈ 2.15 µM) | 2.2 µg/mL (≈ 5.91 µM) |  |
| CC(C)(OB1OCc2cc(F)ccc21)C(C)(C)OB1OCc2cc(F)ccc21 [Compound 9, 1,1′-((2,3-dimethylbutane-2,3-diyl)bis(oxy))bis(5-fluoro-1,3-dihydrobenzo[c][1,2]oxaborole)] | 1.1 µg/mL (≈ 2.85 µM) | 0.3 µg/mL (≈ 0.777 µM) | 0.8 µg/mL (≈ 2.07 µM) | 4.5 µg/mL (≈ 11.7 µM) | antimicrobial activity against Botrytis cinerea in grape in vivo analysis [2]: good antimicrobial activity; phytotoxicity in grape in vivo analysis [2]: no phytotoxicity; phytotoxicity in strawberry in vivo analysis [3]: no phytotoxicity; antimicrobial activity against Botrytis cinerea in strawberry in vivo analysis [3]: good antimicrobial activity; antimicrobial activity against Escherichia coli (colony growth relative to control) [4]: good antimicrobial activity; EC50 (Alternaria alternata): 0.3 µg/mL (≈ 0.777 µM); MIC (Alternaria alternata): 2.2 µg/mL (≈ 5.7 µM) |
| Fc1ccc2c(c1)COB2OCCNCCNCCOB1OCc2cc(F)ccc21 [Compound 10, N^1,N^2-bis(2-((5-fluorobenzo[c][1,2]oxaborol-1(3H)-yl)oxy)ethyl)ethane-1,2-diamine] | 0.6 µg/mL (≈ 1.44 µM) | 0.2 µg/mL (≈ 0.481 µM) | 0.9 µg/mL (≈ 2.16 µM) | 8.9 µg/mL (≈ 21.4 µM) |  |
| CC(COB1OCc2cc(F)ccc21)OB1OCc2cc(F)ccc21 (stereo not shown) [Compound 11, 1,1′-(propane-1,2-diylbis(oxy))bis(5-fluoro-1,3-dihydrobenzo[c][1,2]oxaborole)] | 0.6 µg/mL (≈ 1.74 µM) | 0.2 µg/mL (≈ 0.582 µM) | < 0.6 µg/mL | 8.9 µg/mL (≈ 25.9 µM) | EC50 (Monilinia fructicola): 0.2 µg/mL (≈ 0.582 µM); EC50 (Alternaria alternata): 0.31 µg/mL (≈ 0.901 µM); MIC (Alternaria alternata): 1.1 µg/mL (≈ 3.2 µM) |
| OC(COB1OCc2cc(F)ccc21)COB1OCc2cc(F)ccc21 [Compound 12, 1,3-bis((5-fluorobenzo[c][1,2]oxaborol-1(3H)-yl)oxy)propan-2-ol] | 0.6 µg/mL (≈ 1.67 µM) | 0.2 µg/mL (≈ 0.556 µM) | 1.1 µg/mL (≈ 3.06 µM) | 8.9 µg/mL (≈ 24.7 µM) |  |
| Fc1ccc2c(c1)COB2OCCCOB1OCc2cc(F)ccc21 [Compound 13, 1,3-bis((5-fluorobenzo[c][1,2]oxaborol-1(3H)-yl)oxy)propane] | 0.3 µg/mL (≈ 0.872 µM) | 0.1 µg/mL (≈ 0.291 µM) | 0.8 µg/mL (≈ 2.33 µM) | 8.9 µg/mL (≈ 25.9 µM) | antimicrobial activity against Botrytis cinerea in grape in vivo analysis [2]: good antimicrobial activity; phytotoxicity in grape in vivo analysis [2]: no phytotoxicity; phytotoxicity in strawberry in vivo analysis [3]: no phytotoxicity; antimicrobial activity against Botrytis cinerea in strawberry in vivo analysis [3]: good antimicrobial activity; antimicrobial activity against Escherichia coli (colony growth relative to control) [4]: good antimicrobial activity |
| Fc1ccc2c(c1)COB2OCc1ccc(COB2OCc3cc(F)ccc32)cc1 [Compound 14, 1,4-bis(((5-fluorobenzo[c][1,2]oxaborol-1(3H)-yl)oxy)methyl)benzene] | 1.1 µg/mL (≈ 2.71 µM) | 0.4 µg/mL (≈ 0.985 µM) | 1.7 µg/mL (≈ 4.19 µM) | 17.9 µg/mL (≈ 44.1 µM) |  |
| Fc1ccc2c(c1)COB2OCc1cccc(COB2OCc3cc(F)ccc32)c1 [Compound 15, 1,3-bis(((5-fluorobenzo[c][1,2]oxaborol-1(3H)-yl)oxy)methyl)benzene] | 2.2 µg/mL (≈ 5.42 µM) | 0.7 µg/mL (≈ 1.72 µM) | 2.5 µg/mL (≈ 6.16 µM) | 17.9 µg/mL (≈ 44.1 µM) |  |
| Fc1ccc2c(c1)COB2NCCCNB1OCc2cc(F)ccc21 [Compound 16, N^1,N^3-bis(5-fluorobenzo[c][1,2]oxaborol-1(3H)-yl)propane-1,3-diamine] | 1.1 µg/mL (≈ 3.22 µM) | 0.3 µg/mL (≈ 0.877 µM) | 1 µg/mL (≈ 2.92 µM) | 8.9 µg/mL (≈ 26 µM) |  |
| Fc1ccc2c(c1)COB2NCCNB1OCc2cc(F)ccc21 [Compound 17, N^1,N^2-bis(5-fluorobenzo[c][1,2]oxaborol-1(3H)-yl)ethane-1,2-diamine] | 1.1 µg/mL (≈ 3.35 µM) | 0.4 µg/mL (≈ 1.22 µM) | 1.8 µg/mL (≈ 5.49 µM) | 17.9 µg/mL (≈ 54.6 µM) |  |
| Fc1cc2c(cc1F)B(OCCOB1OCc3cc(F)c(F)cc31)OC2 [Compound 18, 1,2-bis((5,6-difluorobenzo[c][1,2]oxaborol-1(3H)-yl)oxy)ethane] | 9 µg/mL (≈ 24.6 µM) | 3 µg/mL (≈ 8.2 µM) | > 35.7 µg/mL | > 35.7 µg/mL |  |
| Clc1ccc2c(c1)COB2OCCOB1OCc2cc(Cl)ccc21 [Compound 19, 1,2-bis((5-chlorobenzo[c][1,2]oxaborol-1(3H)-yl)oxy)ethane] |  |  |  |  | MIC Botrytis cinerea [1, 5]: 0 µg/mL |
| Fc1ccc2c(c1)COB2OB1OCc2cc(F)ccc21 [Compound 20, 1,1′-oxybis(5-fluoro-1,3-dihydrobenzo[c][1,2]oxaborole)] | 0.3 µg/mL (≈ 1.05 µM) | 0.1 µg/mL (≈ 0.35 µM) | 0.5 µg/mL (≈ 1.75 µM) | 4.5 µg/mL (≈ 15.7 µM) |  |
